Source: patent publication US20260191815A1, “THIOACRYLAMIDE DERIVATIVES FOR USE IN THE PREVENTION OR TREATMENT OF LIVER FIBROSIS” (CMR CUREDIAB METABOLIC RESEARCH GMBH, priority 2022, published 2026)

Experiments:
[1] = system: caspase 3/7 activity in HepG2 cells; experiment: Caspase 3/7 activity provoked by palmitate in HepG2 cells; assay type: cell-based
Method: (§1) The potential protective effect of HK1 and HK3 on caspase 3/7 activity in HepG2 cells and primary human hepatocytes was analysed.
(§2) HepG2 cells were obtained from Merck (Darmstadt, Germany) (ECACC-certified), while primary human hepatocytes were obtained from Thermo Fisher Scientific (Waltham, MA, USA), and all were cultured according to the instructions of the respective manufacturers. During experiments, cells were cultured in serum-free medium. Unless otherwise stated, cells were treated with 200 μM bovine serum albumin (BSA)-conjugated palmitate (Cayman Chemicals, Ann Arbor, MI) alone or in combination with 10 μM HK1 (Taros Chemicals GmbH & Co. KG, Dortmund, Germany) and HK3 (Taros Chemicals GmbH & Co. KG, Dortmund, Germany) 30 min prior to palmitate exposure for 24 hours. The vehicle BSA was used according to the palmitate concentration and DMSO according to HK1 and HK3 concentration. 2 μM Staurosporine (Abcam, Cambridge, GB) was used as a positive and 100 μM Caspase 3/7 inhibitor (CI) (Cayman Chemicals) as a negative control.
(§3) Differences were analysed by one-way ANOVA.
A hepatoprotective effect was determined as described in Example 4. A treatment was performed with HK1, HK2, HK3, HK4 or HK5 (100 nM) either alone or in combination with palmitate (200 μM).
Differences were analysed by one-way ANOVA, n=4.

[2] = system: caspase 3/7 activity in primary human hepatocytes; experiment: Caspase 3/7 activity provoked by palmitate in primary human hepatocytes; assay type: cell-based
Method: as §1, §2, §3

[3] = system: fibronectin 1 (FN1) protein in LX2 cells; experiment: Simple Western of FN1 protein in TGF-β1-stimulated LX2 hepatic stellate cells; assay type: cell-based, human; conditions: 5 ng/ml TGF-β1, 24 h, LX2 cells
Method: (§4) The human hepatic stellate cell line LX2 was purchased from Merck. The cells were used up to passage ten and incubated under sterile conditions at 37° C. and 5% CO2. The cells were cultivated in medium containing Dulbecco's Modified Eagle's Medium with 4.5 g/l glucose (ThermoFisher), 4 mmol/l glutamine (ThermoFisher), 2% fetal bovine serum (FBS) (Merck), 100 U/ml penicillin and 100 μg/ml streptomycin (Merck). After 2 days, LX2 cells were starved for FBS for 24 h and then pretreated with 10 μM HK1 (Taros Chemicals GmbH & Co. KG) or 10 μM HK3 (Taros Chemicals GmbH & Co. KG) for 30 min. Subsequently, 5 ng/ml recombinant TGF-β1 (R&D Systems, Minneapolis, MN, USA) was added to the hepatic stellate cell cultures for 24 h. LX2 cells were also incubated with 5 ng/ml TGF-β1 alone as positive control for the hepatic stellate cell activation. Recombinant TGF-β1 was dissolved in sterile 4 mmol/l HCl (Merck) containing 0.1% bovine serum albumin (Roth Karlsruhe, Germany) as carrier protein. HK1 and HK3 were dissolved in sterile dimethyl sulfoxide (DMSO) (Sigma-Aldrich, Munich, Germany). Stimulations with 10 μM HK1, 10 μM HK3 and the corresponding vehicles (HCl and DMSO with or without HCl) alone for 24 h were also included as treatments.
(§5) For the measurement of the pro-fibrotic proteins, Western Blotting was performed. Proteins were extracted from whole cell lysate of LX2 cells using RIPA lysis buffer containing 50 mmol/l Tris-HCl (pH 8.0), 150 mmol/l NaCl, 1% IGEPAL® CA-630, 0.5% sodium deoxycholate, 0.1% sodium dodecyl sulfate, 10% PhosSTOP Phosphatase Inhibitor Cocktail (Roche, Basel, Switzerland) and 10% cOmplete Mini Protease Inhibitor Cocktail (Roche). Lysates were centrifuged at 14850×g for 15 min at 4° C. Then, the total protein content of the lysates was determined using a bicinchoninic acid protein assay (ThermoFisher Scientific) in accordance with the manufacturer's instructions. The quantification of protein abundance was performed by Simple Western size-based assays using a 12-230 kDa and 66-440 kDa Separation Module (ProteinSimple, San Jose, CA, USA) according to the manufacturer's instructions. This fully automated Western blotting system is based on a capillary electrophoresis technology. The separation, immobilization to the capillary wall via a proprietary, photoactivated capture chemistry and immunodetection of the proteins using a horseradish peroxidase (HRP)-conjugated secondary antibody and chemiluminescent substrate take place directly in the capillary without gel separation and transfer steps to blotting paper. The chemiluminescence is measured at multiple exposure times and automatically quantified by the Compass for Simple Western software (version 4.1.0) (ProteinSimple). The chemiluminescent signal for immunodetected proteins, which can be represented as an electropherogram or virtual blot-like image, is automatically quantified by calculation of the area under the curve of the peak.
(§6) The software reports the molecular weight, the area (in an arbitrary unit and in percent) and signal to noise ratio for each protein detected. The primary antibodies for the recognition of endogenous levels of total alpha-1 type 1 collagen (COL1A1) protein (#72026) and total fibronectin 1 (FN1) protein (#26836) were purchased from Cell Signaling Technology (Danvers, MA, USA). The anti-rabbit HRP-linked secondary antibody was from ProteinSimple. […]
(§7) Differences were analysed by one-way ANOVA followed by the Tukey method as correction for multiple testing.

[4] = system: interleukin-6 (IL-6) secretion by LX2 cells; experiment: Olink Inflammation immunoassay of LX2 supernatants: IL-6; assay type: cell-based, human; conditions: 5 ng/ml TGF-β1
Method: as §4
LX2 cells were cultured and treated as described in Example 1. After the incubation time, the supernatants of LX2 cells were collected, centrifuged for 10 min at 2000×g at 4° C. and transferred to new tubes to measure 92 proteins in the cell culture supernatants simultaneously using the Olink Inflammation multiplex immunoassay (Olink proteomics, Uppsala, Sweden). This panel covers 92 proteins, including pro- and anti-inflammatory cytokines, growth factors, chemokines and factors involved in biological processes such as apoptosis, inflammatory and immune response, cell adhesion, chemotaxis, or fibrosis. This protein quantification method is based on a proximity extension assay technology, which combines a dual-recognition immunoassay using two matched antibodies labelled with DNA oligonucleotides, with a polymerase chain reaction (PCR) amplification and a microfluidic quantitative real-time PCR as readout. The biomarker concentrations are given as normalized protein expression (NPX) values, which were generated from the threshold cycle values from the qPCR, and represent an arbitrary unit on a log 2 scale.
as §7

[5] = system: alpha-1 type 1 collagen (COL1A1) protein in LX2 cells; experiment: Simple Western of COL1A1 protein in TGF-β1-stimulated LX2 hepatic stellate cells; assay type: cell-based, human; conditions: 5 ng/ml TGF-β1, 24 h, LX2 cells
Method: as §4, §5, §6, §7

[6] = system: vascular endothelial growth factor A (VEGFA) secretion by LX2 cells; experiment: Olink Inflammation immunoassay of LX2 supernatants: VEGFA; assay type: cell-based, human; conditions: 5 ng/ml TGF-β1
Method: as §4, with “Recombinant TGF-β1 was dissolved in sterile 4 mmol/l HCl (Merck) containing 0.1% bovine serum albumin (Roth Karlsruhe, Germany) as carrier protein. HK1 and HK3 were dissolved in sterile dimethyl sulfoxide (DMSO) (Sigma-Aldrich, Munich, Germany). Stimulations with 10 μM HK1, 10 μM HK3 and the corresponding vehicles (HCl and DMSO with or without HCl) alone for 24 h were also included as treatments.” left out
(§8) LX2 cells were cultured and treated as described in Example 1. […] This protein quantification method is based on a proximity extension assay technology, which combines a dual-recognition immunoassay using two matched antibodies labelled with DNA oligonucleotides, with a polymerase chain reaction (PCR) amplification and a microfluidic quantitative real-time PCR as readout. […]
as §7

[7] = system: leukaemia inhibitory factor (LIF) secretion by LX2 cells; experiment: Olink Inflammation immunoassay of LX2 supernatants: LIF; assay type: cell-based, human; conditions: 5 ng/ml TGF-β1
Method: as §4, with “Recombinant TGF-β1 was dissolved in sterile 4 mmol/l HCl (Merck) containing 0.1% bovine serum albumin (Roth Karlsruhe, Germany) as carrier protein. HK1 and HK3 were dissolved in sterile dimethyl sulfoxide (DMSO) (Sigma-Aldrich, Munich, Germany). Stimulations with 10 μM HK1, 10 μM HK3 and the corresponding vehicles (HCl and DMSO with or without HCl) alone for 24 h were also included as treatments.” left out
as §8, §7

For `COC[C@@H]1CCCN1S(=O)(=O)c1ccc2c(c1)C(=O)C(=O)N2` [Caspase 3/7 inhibitor, reference compound], the “caspase 3/7 activity, % of control” value ([1]; 100 μM caspase 3/7 inhibitor + palmitate 200 μM) was 29.65%±24.56% and the “caspase 3/7 activity, % of control” value ([2]; 100 μM inhibitor + palmitate 200 μM) was 21.23%±4.33%.

With `CN[C@@H]1C[C@H]2O[C@@](C)([C@@H]1OC)n1c3ccccc3c3c4c(c5c6ccccc6n2c5c31)C(=O)NC4` [Staurosporine, reference compound] the activity at 2 µM ([1]; Homo sapiens, 2 μM, positive control) was 687%.

Molecule `CCCCCCCCCCCCCCCC(=O)O` [palmitate, reference compound] has an activity at 200 µM ([1]; Homo sapiens, palmitate 200 μM alone, 24 h, read-out: caspase 3/7 activity, % of control) of 429% and an activity at 200 µM ([2]; Hepatocyte, palmitate 200 μM alone, read-out: caspase 3/7 activity, % of control) of 129%.

“TGF-β1: recombinant TGF-β1 (R&D Systems), positive control for the hepatic stellate cell activation” was tested, and the “increase of protein levels of FN1 compared to untreated cells” value [3] was 3.0±0.2 fold, the “increased secretion of IL-6 compared to untreated LX2 cells” value [4] was 4.99±2.01 fold and the “increase of protein levels of COL1A1 compared to untreated cells” value [5] was 2.6±0.2 fold. For the same molecule, the “increased secretion of VEGFA compared to untreated LX2 cells” value [6] was 13.89±2.40 fold and the “increased secretion of LIF compared to untreated LX2 cells” value [7] was 35.40±9.76 fold.
